Patent US20040018501A1, “Methods and systems for analyzing complex biological systems” (priority 2001, published 2004)

Test system: Saccharomyces cerevisiae wild type strain BY4743
Assay: AF1 yeast metabolite analysis by GC-MS and LC-MS
Format: cell-based
Conditions: for Fold Change, NacetylLglutamate: detected metabolite NacetylLglutamate; for Fold Change, NacetylLornithine: detected metabolite NacetylLornithine; for Fold Change, nicotinic acid: detected metabolite nicotinic acid; for Fold Change, nopaline: detected metabolite nopaline; for Fold Change, oleic acid: detected metabolite oleic acid; for Fold Change, ornithine: detected metabolite ornithine; for Fold Change, phenylalanine: detected metabolite phenylalanine; for Fold Change, phosphoenolpyruvate: detected metabolite phosphoenolpyruvate; for Fold Change, pipecolic acid: detected metabolite pipecolic acid; for Fold Change, proline: detected metabolite proline; for Fold Change, pyridoxine: detected metabolite pyridoxine; for Fold Change, selenoDLmethionine: detected metabolite selenoDLmethionine; for Fold Change, serine: detected metabolite serine; for Fold Change, sugar-phosphate: detected metabolite sugar-phosphate; for Fold Change, tetradecanoic acid: detected metabolite tetradecanoic acid; for Fold Change, threonine/homoserin: detected metabolite threonine/homoserin; for Fold Change, thymine: detected metabolite thymine; for Fold Change, tryptophan: detected metabolite tryptophan; for Fold Change, tyrosine: detected metabolite tyrosine; for Fold Change, urocanic acid: detected metabolite urocanic acid; for Fold Change, valine: detected metabolite valine; for Fold Change, zeatin: detected metabolite zeatin

CC[C@@H]([C@H](C)O)n1ncn(-c2ccc(N3CCN(c4ccc(OC[C@@H]5CO[C@@](Cn6cncn6)(c6ccc(F)cc6F)C5)cc4)CC3)cc2)c1=O [Posaconazole]
Fold Change of alanine (GC): 1.035 | Fold Change of asparagine (GC): 0.145 | Fold Change of aspartic acid (GC): −0.071 | Fold Change of campesterol (GC): 0 | Fold Change of desmosterol (GC): 0 | Fold Change of disaccaride1 (GC): 0.04733 | Fold Change of disaccaride2 (GC): 0.313 | Fold Change of disaccaride3 (GC): 0.3407 | Fold Change of ergosterol (GC): 0.808 | Fold Change of fucosterol (GC): 6.722 | Fold Change of glutamine (GC): 0.6439 | Fold Change of glycanopyrose (GC): 1.594 | Fold Change of glycerol (GC): 0.1873 | Fold Change of glycine (GC): 0.08267 | Fold Change of hexadecanoic acid (GC): −0.01867 | Fold Change of iso citric acid (GC): 0.4 | Fold Change of isoleucine (GC): 0.1023 | Fold Change of lanosterol (GC): 7.464 | Fold Change of leucine (GC): 0.334 | Fold Change of lysine (GC): 0.1586 | Fold Change of malic acid (GC): 0.2942 | Fold Change of biotin (LC): 0 | Fold Change of folic acid (LC): 0 | Fold Change, NacetylDglucosamine (detected metabolite NacetylDglucosamine, platform nLC): 0 | Fold Change, NacetylLglucosamine (detected metabolite NacetylLglucosamine, platform pLC): 0 | Fold Change, NacetylLglutamate (platform nLC): −0.07165 | Fold Change, NacetylLglutamate (platform pLC): 0 | Fold Change, NacetylLornithine (platform nLC): 0 | Fold Change, NacetylLornithine (platform pLC): 0.1338 | Fold Change, TMS mevalonic acid lactone (detected metabolite TMS mevalonic acid lactone, platform GC): −0.3118 | Fold Change, mevalonic acid lactone (detected metabolite mevalonic acid lactone, platform GC): 0.5555 | Fold Change, mevalonic lactone (detected metabolite mevalonic lactone, platform pLC): −0.08368 | Fold Change, niacinamide (detected metabolite niacinamide, platform pLC): 0 | Fold Change, nicotinic acid (platform nLC): 1.421 | Fold Change, nicotinic acid (platform pLC): −0.8142 | Fold Change, nopaline (platform nLC): 0.7554 | Fold Change, nopaline (platform pLC): 0 | Fold Change, octadecanoic acid (detected metabolite octadecanoic acid, platform GC): 0.321 | Fold Change, oleic acid (platform GC): −0.5057 | Fold Change, oleic acid (platform nLC): 0.5606 | Fold Change, ornithine2 (detected metabolite ornithine2, platform GC): −0.1383 | Fold Change, ornithine3 (detected metabolite ornithine3, platform GC): 0.041 | Fold Change, ornithine (platform nLC): 2.314 | Fold Change, ornithine (platform pLC): 0.4314 | Fold Change, orotic acid (detected metabolite orotic acid, platform nLC): 0 | Fold Change, palmiteliadic acid (detected metabolite palmiteliadic acid, platform GC): −0.2453 | Fold Change, palmitic acid (detected metabolite palmitic acid, platform nLC): 0.1518 | Fold Change, phenylalanine (platform GC): 0.06069 | Fold Change, phenylalanine (platform nLC): −0.03702 | Fold Change, phenylalanine (platform pLC): −0.1585 | Fold Change, phenylpyruvic acid (detected metabolite phenylpyruvic acid, platform nLC): 0 | Fold Change, phosphate (detected metabolite phosphate, platform GC): −0.1833 | Fold Change, phosphoenolpyruvate (platform LC): 0 | Fold Change, phosphoenolpyruvate (platform nLC): 0 | Fold Change, pinitol (detected metabolite pinitol, platform nLC): 0 | Fold Change, pipecolic acid (platform nLC): 0.1806 | Fold Change, pipecolic acid (platform pLC): 0.3444 | Fold Change, progesterone (detected metabolite progesterone, platform pLC): 0 | Fold Change, proline (platform LC): 0.3157 | Fold Change, proline (platform nLC): 0.3147 | Fold Change, pyridoxine (platform nLC): −0.1015 | Fold Change, pyridoxine (platform pLC): −0.239 | Fold Change, pyrimidine (detected metabolite pyrimidine, platform GC): 0.159 | Fold Change, retinoic acid (detected metabolite retinoic acid, platform nLC): 0 | Fold Change, riboflavin (detected metabolite riboflavin, platform pLC): 0 | Fold Change, salicylic/HObenzoic (detected metabolite salicylic/HObenzoic, platform nLC): 0 | Fold Change, selenoDLmethionine (platform nLC): −0.6722 | Fold Change, selenoDLmethionine (platform pLC): −0.7083 | Fold Change, serine (platform nLC): 0.152 | Fold Change, serine (platform pLC): 0.2417 | Fold Change, shikimic acid (detected metabolite shikimic acid, platform nLC): 0 | Fold Change, sinapinic acid (detected metabolite sinapinic acid, platform nLC): 0 | Fold Change, sorbitol/mannitol (detected metabolite sorbitol/mannitol, platform nLC): 0.009121 | Fold Change, squalene (detected metabolite squalene, platform GC): 0.07431 | Fold Change, succinic (detected metabolite succinic, platform nLC): −0.06141 | Fold Change, sucrose (detected metabolite sucrose, platform nLC): 0.1847 | Fold Change, sugar-phosphate (platform nLC): −0.04543 | Fold Change, sugar-phosphate (platform pLC): 0 | Fold Change (detected metabolite sugar?, platform GC): 0.6923 | Fold Change, tetradecanoic acid (platform GC): −0.214 | Fold Change, tetradecanoic acid (platform nLC): 1.029 | Fold Change, thiamine (detected metabolite thiamine, platform pLC): 0 | Fold Change, threonine2 (detected metabolite threonine2, platform GC): 0.457 | Fold Change, threonine3 (detected metabolite threonine3, platform GC): 0.225 | Fold Change, threonine/homoserin (platform nLC): 0.04034 | Fold Change, threonine/homoserin (platform pLC): 0.1437 | Fold Change, thymine (platform nLC): 0 | Fold Change, thymine (platform pLC): 0 | Fold Change, tms glutamine3 (detected metabolite tms glutamine3, platform GC): 0.6709 | Fold Change, tms lysine4 (detected metabolite tms lysine4, platform GC): 0.05667 | Fold Change, tms tyrosine2 (detected metabolite tms tyrosine2, platform GC): 1.228 | Fold Change, tms tyrosine3 (detected metabolite tms tyrosine3, platform GC): 0.1911 | Fold Change, tryptophan (platform nLC): 4.676 | Fold Change, tryptophan (platform pLC): 0 | Fold Change, tyrosine (platform nLC): 0.0282 | Fold Change, tyrosine (platform pLC): 0.1008 | Fold Change, uracil (detected metabolite uracil, platform nLC): −0.2779 | Fold Change, uric acid (detected metabolite uric acid, platform pLC): 0 | Fold Change, uridine (detected metabolite uridine, platform nLC): 0.02855 | Fold Change, urocanic acid (platform nLC): 0 | Fold Change, urocanic acid (platform pLC): 0 | Fold Change, valine (platform GC): 0.345 | Fold Change, valine (platform nLC): 0.0195 | Fold Change, xanthosine(diH2O) (detected metabolite xanthosine(diH2O), platform pLC): 0 | Fold Change, xanthosineDiH2O (detected metabolite xanthosineDiH2O, platform nLC): 0 | Fold Change, zeatin (platform nLC): 0 | Fold Change, zeatin (platform pLC): 0 | Fold Change of 2-ketobutyric acid (nLC): −0.9992 | Fold Change of 2-ketoglutaric (nLC): 11.33 | Fold Change of 3-indolylacetonitri (nLC): −0.9998 | Fold Change of 4-methylcatechol (nLC): 0 | Fold Change of 4aminobutyrate/dimg (nLC): −0.008939 | Fold Change of 5hydroxyLtryptophan (nLC): 0 | Fold Change of 6-benzylaminopurine (nLC): 0 | Fold Change of DLaminoadipic acid (nLC): −0.9935 | Fold Change of abscisic acid (nLC): 0 | Fold Change of aconitic acid (nLC): 1.874 | Fold Change of adenine (nLC): 0 | Fold Change of adenosine (nLC): 128.3 | Fold Change of alanine (nLC): 0.1091 | Fold Change of allantoic acid (nLC): 0.3321 | Fold Change of allantoin (nLC): 5.97 | Fold Change of anthranilic acid (nLC): 0 | Fold Change of arginine (nLC): 0.1707 | Fold Change of argininosuccinate (nLC): 318.3 | Fold Change of asparagine (nLC): 0.006865 | Fold Change of aspartic (nLC): 0.305 | Fold Change of benzoic acid (nLC): 0 | Fold Change of biotin (nLC): −0.9992 | Fold Change of caffeic acid (nLC): −0.49 | Fold Change of catechol (nLC): 0 | Fold Change of cinnamic acid (nLC): 0 | Fold Change of citricanoic/itaconi (nLC): 0 | Fold Change of citrulline (nLC): 1160 | Fold Change of coumaric acid (nLC): 0 | Fold Change of cytidine (nLC): −0.9986 | Fold Change of cytosine (nLC): 0 | Fold Change of decanoic acid (nLC): 0.1263 | Fold Change of diaminopimelic acid (nLC): 0 | Fold Change of dihydrofolic acid (nLC): 0 | Fold Change of estrone (nLC): 0 | Fold Change of farnesol (nLC): 0 | Fold Change of folic acid (nLC): 0 | Fold Change of fumaric/3m2oxobutan (nLC): −0.9997 | Fold Change of gallic acid (nLC): 0.4414 | Fold Change of gibberellic (nLC): 0 | Fold Change of glucosamine6PO4 (nLC): −0.9951 | Fold Change of glutamic/acetylseri (nLC): 0.3222 | Fold Change of glutamine/lysine (nLC): 0.09814 | Fold Change of guanine (nLC): 0 | Fold Change of guanosine (nLC): −0.993 | Fold Change of histidine (nLC): 0 | Fold Change of homogentisic/uric (nLC): 0 | Fold Change of hydrocortisone (nLC): 0 | Fold Change of hypoxanthine (nLC): 0.1751 | Fold Change of indole3pyruvic acid (nLC): 0 | Fold Change of inostol/glucos/sorb (nLC): −0.493 | Fold Change of isocitric/citric/qu (nLC): 1.711 | Fold Change of jasmonic acid (nLC): 0 | Fold Change of kinetin (nLC): 0 | Fold Change of lactic acid (nLC): 0.5987 | Fold Change of lauric acid (nLC): 0.9833 | Fold Change of leucine/isoleucine/ (nLC): 0.03158 | Fold Change of luteolin (nLC): 0 | Fold Change of malic acid (nLC): 0.3101 | Fold Change of malonic acid (nLC): 0 | Fold Change of menthol* (nLC): 0.08121 | Fold Change of methionine (nLC): 0 | Fold Change of 4-aminobenzoic acid (pLC): 0 | Fold Change of 4-methylcatechol (pLC): 0 | Fold Change of 4ambutyrate/dimglyc (pLC): 31.37 | Fold Change of 5hydroxyLtryptophan (pLC): 0 | Fold Change of 6benzylaminopurine (pLC): 0 | Fold Change of DL-aminoadipic acid (pLC): 1.685 | Fold Change of abscisic acid (pLC): 0 | Fold Change of adenine (pLC): −0.0145 | Fold Change of adenosine (pLC): 0 | Fold Change of alanine/sarcosine (pLC): 0.1013 | Fold Change of allantoic acid (pLC): 0 | Fold Change of anthranilic acid (pLC): 0 | Fold Change of arginine (pLC): 0.03383 | Fold Change of argininosuccinate (pLC): 0 | Fold Change of asparagine (pLC): 0.4302 | Fold Change of aspartic acid (pLC): 0.3626 | Fold Change of caffeine (pLC): 0 | Fold Change of citric acid TME (pLC): 0 | Fold Change of citrulline (pLC): 0.1011 | Fold Change of cytidine (pLC): 0 | Fold Change of cytosine (pLC): 1135 | Fold Change of diaminopimelic acid (pLC): 0 | Fold Change of dihydrofolic acid (pLC): 0 | Fold Change of dipicolinic acid (pLC): 0 | Fold Change of glucosamine (pLC): 0 | Fold Change of glucosamine6PO4 (pLC): 0 | Fold Change of glutamate (pLC): 0.3769 | Fold Change of glutamine/lysine (pLC): 0.303 | Fold Change of glutathione (pLC): 0.0101 | Fold Change of guanosine (pLC): 0.04655 | Fold Change of histidine (pLC): 0 | Fold Change of hydrocortisone (pLC): 0 | Fold Change of hypoxanthine (pLC): 0.135 | Fold Change of itaconic acid dimes (pLC): 0 | Fold Change of kinetin (pLC): 0 | Fold Change of leucine/isoleucine/ (pLC): 0.04937 | Fold Change of mannitol (pLC): 0.3919 | Fold Change of methionine (pLC): −0.3997
